ChEMBL document CHEMBL5223094, “Recent advancements in chromone as a privileged scaffold towards the development of small molecules for neurodegenerative therapeutics” (RSC Med Chem, 2022)
Blank lines part the entries; values can stand above or below the compound they belong to.

Key:
Cholinesterase [1] = target: Cholinesterase (Equus caballus, UniProt P81908); assay: Inhibition of equine serum BuChE using butyrylthiocholine chloride as substrate preincubated for 15 mins followed by substrate addition by Ellman's method
[2] = target: Amyloid-beta precursor protein (Homo sapiens) (UniProt P05067); assay: Inhibition of self-induced amyloid beta (1 to 42) (unknown origin) aggregation at 10 uM incubated for 48 hrs by ThT fluorometric assay
[3] = target: Amyloid-beta precursor protein (Homo sapiens) (UniProt P05067); assay: Inhibition of electric eel AChE-indued amyloid beta (1 to 42) (unknown origin) aggregation at 100 uM incubated for 24 hrs by ThT fluorometric assay
Acetylcholinesterase [4] = target: Acetylcholinesterase (Electrophorus electricus, UniProt O42275); assay: Inhibition of electric eel AChE using acetylthiocholine iodide as substrate preincubated for 15 mins followed by substrate addition by Ellman's method
[5] = target: T1, Amine oxidase [flavin-containing] A (Homo sapiens, UniProt P21397); assay: Inhibition of MAO-A (unknown origin)
T1 sequence (P21397 whole entry): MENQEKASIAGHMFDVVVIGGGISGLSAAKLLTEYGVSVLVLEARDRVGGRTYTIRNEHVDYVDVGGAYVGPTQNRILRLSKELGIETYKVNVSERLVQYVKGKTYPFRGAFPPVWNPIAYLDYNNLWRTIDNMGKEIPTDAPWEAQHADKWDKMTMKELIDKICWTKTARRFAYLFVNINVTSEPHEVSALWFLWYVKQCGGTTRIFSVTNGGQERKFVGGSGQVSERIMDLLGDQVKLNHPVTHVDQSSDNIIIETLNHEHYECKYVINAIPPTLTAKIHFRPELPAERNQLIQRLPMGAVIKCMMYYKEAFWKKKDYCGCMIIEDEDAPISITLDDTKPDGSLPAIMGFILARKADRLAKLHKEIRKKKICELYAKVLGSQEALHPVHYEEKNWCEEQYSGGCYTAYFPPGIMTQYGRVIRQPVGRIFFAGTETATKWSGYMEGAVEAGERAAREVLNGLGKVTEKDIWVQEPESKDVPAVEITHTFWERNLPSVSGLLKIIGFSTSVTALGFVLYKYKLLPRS

Homo sapiens [6] = species: Homo sapiens; assay: Selectivity index, ratio of IC50 for inhibition of human MAO-B to IC50 for inhibition of human MAO-A
[7] = target: T2, Amine oxidase [flavin-containing] B (Homo sapiens, UniProt P27338); assay: Inhibition of human MAO-B using tyramine as substrate preincubated for 10 mins followed by substrate addition and measured after 30 mins by fluorometric method
T2 sequence (P27338 whole entry): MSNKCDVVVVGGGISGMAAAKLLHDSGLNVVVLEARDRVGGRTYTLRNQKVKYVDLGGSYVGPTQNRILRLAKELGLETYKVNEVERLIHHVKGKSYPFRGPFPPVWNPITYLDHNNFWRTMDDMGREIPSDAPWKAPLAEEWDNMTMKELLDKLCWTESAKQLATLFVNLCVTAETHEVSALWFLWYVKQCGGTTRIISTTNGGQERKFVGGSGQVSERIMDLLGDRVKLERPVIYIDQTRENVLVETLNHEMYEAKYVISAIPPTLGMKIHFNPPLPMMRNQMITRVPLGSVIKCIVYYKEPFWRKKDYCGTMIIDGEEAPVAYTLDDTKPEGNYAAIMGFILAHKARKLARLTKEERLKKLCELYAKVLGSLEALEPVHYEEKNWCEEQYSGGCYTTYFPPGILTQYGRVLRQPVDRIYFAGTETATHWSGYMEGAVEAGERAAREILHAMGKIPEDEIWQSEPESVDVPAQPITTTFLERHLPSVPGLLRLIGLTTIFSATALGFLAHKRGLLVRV

[8] = target: T3, Polyunsaturated fatty acid 5-lipoxygenase (Homo sapiens, UniProt P09917); assay: Inhibition of human LOX5 using arachidonic acid preincubated for 10 mins followed by substrate addition by microplate spectrophotometric analysis
T3 sequence (P09917 whole entry): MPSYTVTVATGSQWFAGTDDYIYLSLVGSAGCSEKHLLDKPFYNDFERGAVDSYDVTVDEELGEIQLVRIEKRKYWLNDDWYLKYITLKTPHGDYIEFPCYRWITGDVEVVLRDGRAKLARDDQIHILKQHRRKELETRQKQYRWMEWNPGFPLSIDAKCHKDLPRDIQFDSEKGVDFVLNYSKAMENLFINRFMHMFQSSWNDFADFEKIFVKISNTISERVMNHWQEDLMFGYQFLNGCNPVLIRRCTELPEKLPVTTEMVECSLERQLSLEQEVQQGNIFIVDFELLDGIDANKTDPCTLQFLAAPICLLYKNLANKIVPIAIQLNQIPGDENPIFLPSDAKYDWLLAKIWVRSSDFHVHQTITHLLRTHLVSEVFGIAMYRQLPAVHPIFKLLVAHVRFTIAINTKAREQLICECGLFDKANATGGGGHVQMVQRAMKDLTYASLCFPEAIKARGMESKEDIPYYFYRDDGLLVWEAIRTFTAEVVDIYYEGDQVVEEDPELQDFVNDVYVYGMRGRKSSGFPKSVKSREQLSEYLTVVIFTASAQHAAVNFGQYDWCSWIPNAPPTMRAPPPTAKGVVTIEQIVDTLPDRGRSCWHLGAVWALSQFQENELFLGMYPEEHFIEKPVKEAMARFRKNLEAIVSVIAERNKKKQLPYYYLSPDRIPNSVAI

[9] = Antioxidant activity assessed as DPPH radical scavenging activity incubated for 45 mins by microplate spectrophotometric anlaysis; format: functional
Cholinesterase [10] = target: T4, Cholinesterase (Homo sapiens, UniProt P06276); assay: Inhibition of recombinant human BuChE using butyrylthiocholine as substrate preincubated for 15 mins followed by substrate addition and measured after 5 mins by Ellman's method
[11] = Antioxidant activity assessed as DPPH radical scavenging activity; format: functional
Acetylcholinesterase [12] = target: T5, Acetylcholinesterase (Homo sapiens, UniProt P22303); assay: Inhibition of recombinant human AChE using acetylthiocholine as substrate preincubated for 15 mins followed by substrate addition and measured after 5 mins by DTNB reagent based Ellman's method
[13] = Inhibition of soybean LOX15 using arachidonic acid preincubated for 5 mins followed by substrate addition and measured after 5 mins by microplate spectrophotometric analysis; design: species or system Glycine max
[14] = target: T6, Polyunsaturated fatty acid lipoxygenase ALOX15 (Homo sapiens, UniProt P16050); assay: Inhibition of LOX15 (unknown origin)
T6 sequence (P16050 whole entry): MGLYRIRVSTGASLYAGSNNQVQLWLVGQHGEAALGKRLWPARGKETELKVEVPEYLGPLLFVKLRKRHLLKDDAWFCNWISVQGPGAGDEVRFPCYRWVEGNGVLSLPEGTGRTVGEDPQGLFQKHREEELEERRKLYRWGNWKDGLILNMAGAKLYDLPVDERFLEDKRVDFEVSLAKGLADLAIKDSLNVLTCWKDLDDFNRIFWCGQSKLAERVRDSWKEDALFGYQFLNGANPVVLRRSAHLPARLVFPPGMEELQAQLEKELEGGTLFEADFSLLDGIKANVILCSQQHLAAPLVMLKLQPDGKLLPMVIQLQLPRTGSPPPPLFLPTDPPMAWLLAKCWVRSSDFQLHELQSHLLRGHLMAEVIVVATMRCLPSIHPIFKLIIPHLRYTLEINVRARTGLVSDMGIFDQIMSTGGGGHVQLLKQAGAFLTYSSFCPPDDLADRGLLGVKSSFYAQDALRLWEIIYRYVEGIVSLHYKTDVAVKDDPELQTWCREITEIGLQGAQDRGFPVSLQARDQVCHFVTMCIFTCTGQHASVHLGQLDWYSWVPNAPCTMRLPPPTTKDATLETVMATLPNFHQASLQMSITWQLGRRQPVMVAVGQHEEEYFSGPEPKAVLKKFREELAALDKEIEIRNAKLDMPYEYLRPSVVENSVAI

[15] = target: T2, Amine oxidase [flavin-containing] B; assay: Inhibition of MAO-B (unknown origin) by fluorescence spectrophotometer analysis
[16] = target: T1, Amine oxidase [flavin-containing] A; assay: Inhibition of MAO-A (unknown origin) by fluorescence spectrophotometer analysis
SH-SY5Y = assay: Neuroprotective activity against 6-OHDA-induced cell death in human SH-SY5Y cells assessed as cell viability; format: functional, cell-based
Homo sapiens [17] = species: Homo sapiens; assay: Selectivity index, ratio of IC50 for inhibition of MAO-B (unknown origin) to IC50 for inhibition of MAO-A (unknown origin)
Acetylcholinesterase [18] = target: T5, Acetylcholinesterase; assay: Inhibition of AChE (unknown origin) using acetylthiocholine iodide as substrate preincubated for 20 mins followed by substrate addition by Ellman's method
Cholinesterase [19] = target: T4, Cholinesterase; assay: Inhibition of BuChE (unknown origin) using butyrylthiocholine iodide as substrate preincubated for 20 mins followed by substrate addition by Ellman's method
[20] = target: T2, Amine oxidase [flavin-containing] B; assay: Inhibition of recombinant human MAO-B using kynuramine as substrate preincubated for 10 mins followed by enzyme addition and measured after 20 mins by fluorescent microplate reader analysis
[21] = target: T1, Amine oxidase [flavin-containing] A; assay: Inhibition of recombinant human MAO-A using kynuramine as substrate preincubated for 10 mins followed by enzyme addition and measured after 20 mins by fluorescent microplate reader analysis

Sequence of Amyloid-beta precursor protein (Homo sapiens) (P05067 whole entry): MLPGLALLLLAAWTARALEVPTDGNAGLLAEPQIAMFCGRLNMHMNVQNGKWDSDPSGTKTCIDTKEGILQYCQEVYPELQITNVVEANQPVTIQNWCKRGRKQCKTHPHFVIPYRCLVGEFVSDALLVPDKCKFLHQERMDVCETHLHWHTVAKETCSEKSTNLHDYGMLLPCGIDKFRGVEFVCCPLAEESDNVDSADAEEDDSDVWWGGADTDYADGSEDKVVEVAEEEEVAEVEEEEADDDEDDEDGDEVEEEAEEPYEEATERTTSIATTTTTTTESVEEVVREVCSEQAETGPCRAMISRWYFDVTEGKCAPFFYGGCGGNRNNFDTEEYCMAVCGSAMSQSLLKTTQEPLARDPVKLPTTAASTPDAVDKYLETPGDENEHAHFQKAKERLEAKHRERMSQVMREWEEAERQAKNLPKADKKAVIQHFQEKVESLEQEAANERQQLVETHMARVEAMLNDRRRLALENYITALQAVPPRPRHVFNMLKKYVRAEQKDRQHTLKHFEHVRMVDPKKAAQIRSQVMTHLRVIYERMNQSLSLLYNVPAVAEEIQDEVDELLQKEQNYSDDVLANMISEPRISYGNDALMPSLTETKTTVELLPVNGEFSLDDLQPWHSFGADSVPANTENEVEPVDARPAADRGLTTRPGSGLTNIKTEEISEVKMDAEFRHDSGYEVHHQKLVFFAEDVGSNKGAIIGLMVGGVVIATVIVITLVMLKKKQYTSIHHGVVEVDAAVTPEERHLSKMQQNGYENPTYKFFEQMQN
Sequence of Cholinesterase (Equus caballus, UniProt P81908) (P81908 whole entry): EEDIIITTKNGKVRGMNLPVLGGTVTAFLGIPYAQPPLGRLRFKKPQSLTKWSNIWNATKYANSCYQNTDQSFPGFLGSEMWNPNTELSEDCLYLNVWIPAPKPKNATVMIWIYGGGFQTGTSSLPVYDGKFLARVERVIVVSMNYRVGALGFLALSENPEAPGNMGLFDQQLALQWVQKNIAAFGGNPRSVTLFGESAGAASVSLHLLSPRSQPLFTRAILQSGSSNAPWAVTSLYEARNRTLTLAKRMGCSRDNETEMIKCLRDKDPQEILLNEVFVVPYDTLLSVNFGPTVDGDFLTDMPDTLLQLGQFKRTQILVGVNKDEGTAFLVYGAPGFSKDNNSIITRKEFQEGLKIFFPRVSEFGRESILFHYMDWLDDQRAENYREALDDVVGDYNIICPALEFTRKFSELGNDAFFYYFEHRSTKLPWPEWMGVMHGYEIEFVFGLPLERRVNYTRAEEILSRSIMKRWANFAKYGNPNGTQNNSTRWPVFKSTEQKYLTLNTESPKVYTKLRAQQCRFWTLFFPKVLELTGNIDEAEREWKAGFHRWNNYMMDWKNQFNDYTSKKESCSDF
T5 sequence (P22303 whole entry): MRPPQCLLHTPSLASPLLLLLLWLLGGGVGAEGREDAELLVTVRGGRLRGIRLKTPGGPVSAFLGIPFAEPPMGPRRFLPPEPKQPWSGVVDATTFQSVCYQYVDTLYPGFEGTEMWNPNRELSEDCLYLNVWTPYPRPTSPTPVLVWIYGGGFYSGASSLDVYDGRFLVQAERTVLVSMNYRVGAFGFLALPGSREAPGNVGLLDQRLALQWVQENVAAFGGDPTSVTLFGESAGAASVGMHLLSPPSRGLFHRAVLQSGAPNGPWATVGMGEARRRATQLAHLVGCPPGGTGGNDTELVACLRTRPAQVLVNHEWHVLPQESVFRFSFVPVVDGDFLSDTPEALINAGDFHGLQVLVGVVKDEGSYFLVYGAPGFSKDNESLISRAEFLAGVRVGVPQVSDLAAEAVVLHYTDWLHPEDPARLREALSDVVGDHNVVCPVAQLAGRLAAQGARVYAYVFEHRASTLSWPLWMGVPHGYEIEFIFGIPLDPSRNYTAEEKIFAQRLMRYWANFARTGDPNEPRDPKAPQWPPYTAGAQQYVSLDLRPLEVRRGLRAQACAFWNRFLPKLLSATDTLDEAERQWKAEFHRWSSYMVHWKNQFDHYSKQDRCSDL
Sequence of Acetylcholinesterase (Electrophorus electricus, UniProt O42275) (O42275 whole entry): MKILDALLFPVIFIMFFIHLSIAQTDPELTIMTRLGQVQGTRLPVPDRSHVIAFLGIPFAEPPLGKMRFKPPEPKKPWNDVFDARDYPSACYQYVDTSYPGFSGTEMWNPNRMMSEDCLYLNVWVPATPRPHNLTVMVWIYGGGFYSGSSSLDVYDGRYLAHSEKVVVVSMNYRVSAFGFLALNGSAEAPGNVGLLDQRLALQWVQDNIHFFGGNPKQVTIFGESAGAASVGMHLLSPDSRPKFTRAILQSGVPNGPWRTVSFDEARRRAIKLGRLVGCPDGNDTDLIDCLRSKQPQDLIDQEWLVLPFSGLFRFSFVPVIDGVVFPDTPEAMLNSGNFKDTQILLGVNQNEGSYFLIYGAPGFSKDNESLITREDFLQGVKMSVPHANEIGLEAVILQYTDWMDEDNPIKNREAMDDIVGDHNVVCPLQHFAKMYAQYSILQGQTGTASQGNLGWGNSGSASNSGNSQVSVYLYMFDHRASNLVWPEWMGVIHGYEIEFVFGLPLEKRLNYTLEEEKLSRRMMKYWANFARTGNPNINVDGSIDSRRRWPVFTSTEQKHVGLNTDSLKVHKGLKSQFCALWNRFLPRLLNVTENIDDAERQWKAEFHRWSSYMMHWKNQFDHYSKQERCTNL
T4 sequence (P06276 whole entry): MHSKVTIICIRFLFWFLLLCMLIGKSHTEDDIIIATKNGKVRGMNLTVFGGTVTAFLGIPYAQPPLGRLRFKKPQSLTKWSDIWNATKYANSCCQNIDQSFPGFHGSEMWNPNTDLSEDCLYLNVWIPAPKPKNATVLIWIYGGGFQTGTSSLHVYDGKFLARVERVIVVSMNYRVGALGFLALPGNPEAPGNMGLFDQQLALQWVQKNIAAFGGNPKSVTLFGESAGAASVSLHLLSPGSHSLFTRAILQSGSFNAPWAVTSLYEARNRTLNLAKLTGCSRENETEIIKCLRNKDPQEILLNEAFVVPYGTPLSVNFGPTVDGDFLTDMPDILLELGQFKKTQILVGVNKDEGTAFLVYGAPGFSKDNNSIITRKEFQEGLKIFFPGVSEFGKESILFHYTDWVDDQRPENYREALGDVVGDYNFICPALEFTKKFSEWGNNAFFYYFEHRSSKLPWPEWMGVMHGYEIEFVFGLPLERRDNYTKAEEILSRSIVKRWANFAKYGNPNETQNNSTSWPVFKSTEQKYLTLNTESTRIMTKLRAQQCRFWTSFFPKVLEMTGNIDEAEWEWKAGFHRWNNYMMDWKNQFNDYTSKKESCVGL

Structure (SMILES): CCc1cc[n+](CCCOc2ccc3c(=O)cc(-c4ccc(OC)cc4)oc3c2)cc1
- IC50 (Cholinesterase [1]): 0.7 µM
- inhibition [2]: 32%
- inhibition [3]: 37%
- IC50 (Acetylcholinesterase [4]): 3 µM

Structure (SMILES): O=c1cc(-c2ccc(Cl)cc2)oc2cc(OCCCC[n+]3ccccc3)ccc12
- IC50 (Cholinesterase [1]): 2 µM
- inhibition [2]: 28%
- inhibition [3]: 22%
- IC50 (Acetylcholinesterase [4]): 0.006 µM

- IC50 [5]: 0.023 µM
Structure (SMILES): COc1ccc2oc(-n3cncn3)cc(=O)c2c1

- Ratio IC50 (Homo sapiens [6]): 324
- IC50 [7]: 0.1 µM
Structure (SMILES): COc1ccc(NC(=O)c2c(OCc3ccccc3)ccc3c(=O)c(C)c(C)oc23)cc1

Structure (SMILES): COc1ccc(-c2cc3cc4c(=O)c(C=O)coc4cc3o2)cc1
- IC50 [8]: 15 µM
- IC50 [9]: 18 µM
- IC50 (Cholinesterase [10]): 5 µM
- IC50 [11]: 18.1 µM
- IC50 (Acetylcholinesterase [12]): 10 µM
- IC50 [13]: 10 µM
- IC50 [14]: 9.6 µM

- IC50 [15]: 2.1 µM
- IC50 [16]: 1.6 µM
Structure (SMILES): O=c1cc(-c2ccc(Cl)cc2)oc2ccc(Cn3cc(Nc4ccc(F)cc4)nn3)cc12

Structure (SMILES): COCOc1cc2occ(-c3ccc(OC)cc3)c(=O)c2c2c1CC(O)C(C)(C)O2 (stereo unspecified)
- EC50 (SH-SY5Y): 0.5 µM

- Ratio IC50 (Homo sapiens [17]): > 14
Structure (SMILES): O=c1cc(-c2ccc(Cl)cc2)oc2ccc(Cn3cc(Oc4cccc(O)c4)nn3)cc12

Structure (SMILES): O=c1c(O)c(-c2ccccc2)oc2cc(Br)c(I)cc12
- IC50 (Acetylcholinesterase [18]): 10 µM
- IC50 (Cholinesterase [19]): 6 µM

- IC50 [20]: 0.63 µM
- IC50 [21]: 0.32 µM
Structure (SMILES): COc1ccc2oc(-n3ccc4ccccc43)cc(=O)c2c1
